Like-named read-outs stand apart in the source and are kept apart here. Marks after values point to notes of the source that are not given here.
Key:
[1] = tested on: chorioallantoic membrane of a fertilized hen egg; experiment: Ocular irritation test HET-CAM
Description: The ocular irritation test used was the substitution test HET-CAM (Hen's Egg Test—Chorioallantoic Membrane), published in the Official Journal dated 26 Dec. 1996. It is recommended by ICCVAM.
At 0.5, 2 and 5 mins post-contact, the three following criteria are observed and scored: hemorrhage, coagulation and hyperemia.

[2] = tested on: immature erythrocytes (reticulocytes)
Description: The morbidity, the mortality, the weight of the animals and the clinical parameters (temperature, skin, hair, eyes, mucous membranes, secretions and excretions, respiratory and neurological function, gait and posture) were noted. 36 h to 48 h after the second treatment, the blood of the animals was collected and analyzed in flow cytometry (toxicity control: reduction of the proportion of immature erythrocytes (CD-71-positive). The proportion of micro-nucleated immature erythrocytes (reticulocytes) was evaluated on 4,000 observations per blood sample. Each rat population (n=10) for each tested substance represents 40,000 observations (Table 5).

HSV-1 [3] = experiment: Model 1: Mixture 1 on cells infected with HSV-1, qPCR of viral genome in BHK-21; type: cell-based, Herpes simplex 1
From the text: (§1) Symp. Quant. […] Model 1:

HSV-1 [4] = experiment: Model 2: Mixture 1 on cells not yet infected with HSV-1, qPCR of viral genome in BHK-21; type: cell-based, Herpes simplex 1
From the text: as §1

HSV-1 [5] = experiment: Model 3: Mixture 1 on cells not yet infected and on free HSV-1, qPCR of viral genome in BHK-21; type: cell-based, Herpes simplex 1
From the text: as §1

HSV-1 [6] = experiment: Model 4: Mixture 1 on HSV-1 before infection, qPCR of viral genome in BHK-21; type: cell-based, Herpes simplex 1
From the text: as §1

BHK-21 line [7] = experiment: Model 1: cytotoxicity on the BHK-21 line, qPCR of 18S gene; type: cell-based; settings: ACV 1 mg/L, 8 h post-contact of 2 mins
From the text: as §1

BHK-21 line [8] = experiment: Model 2: cytotoxicity on the BHK-21 line, qPCR of 18S gene; type: cell-based; settings: ACV 1 mg/L, 8 h post-contact of 2 mins
From the text: as §1

BHK-21 line [9] = experiment: Model 3: cytotoxicity on the BHK-21 line, qPCR of 18S gene; type: cell-based; settings: ACV 1 mg/L, 8 h post-contact of 2 mins
From the text: as §1

BHK-21 line [10] = experiment: Model 4: cytotoxicity on the BHK-21 line, qPCR of 18S gene; type: cell-based; settings: ACV 10^3 mg/L, 8 h post-contact of 2 mins
From the text: as §1

[11] = 100 mg/kg intraperitoneal, female
[12] = 100 mg/kg intraperitoneal, male
[13] = 150 mg/kg intraperitoneal, female
[14] = 150 mg/kg intraperitoneal, male
[15] = control Line + (PBS + HSV), ACV 1 mg/L, 8 h post-contact of 2 mins

CCCCCCCCCCCCOS(=O)(=O)[O-].[Na+] [1% SDS, sodium dodecyl sulfate]
IS of the positive substances of reference [1]: 10±2

O=P1(N(CCCl)CCCl)NCCCO1 (stereo not shown) [Cyclophosphamide, cyclophosphamide]
Micro-nucleated reticulocytes (%) ([2]; 5 mg/kg intravenous, female): 0.40 ± 0.13% | Reticulocytes (%) ([2]; 5 mg/kg intravenous, female): 2.41 ± 0.54% | Micro-nucleated reticulocytes (%) ([2]; 5 mg/kg intravenous, male): 0.56 ± 0.17% | Reticulocytes (%) ([2]; 5 mg/kg intravenous, male): 3.99 ± 0.49% | Micro-nucleated reticulocytes (%) ([2]; 10 mg/kg intravenous, female): 1.02 ± 0.26 % | Reticulocytes (%) ([2]; 10 mg/kg intravenous, female): 1.30 ± 0.43% | Micro-nucleated reticulocytes (%) ([2]; 10 mg/kg intravenous, male): 1.62 ± 0.29% | Reticulocytes (%) ([2]; 10 mg/kg intravenous, male): 1.95 ± 0.59%

CCOS(C)(=O)=O [Methanesulfonate, ethyl methanesulfonate]
Micro-nucleated reticulocytes (%) [2, 11]: 0.48 ± 0.16 % | Reticulocytes (%) [2, 11]: 1.86 ± 0.25% | Micro-nucleated reticulocytes (%) [2, 12]: 0.68 ± 0.35 % | Reticulocytes (%) [2, 12]: 1.41 ± 0.32% | Micro-nucleated reticulocytes (%) [2, 13]: 0.59 ± 0.26 % | Reticulocytes (%) [2, 13]: 0.45 ± 0.33% | Micro-nucleated reticulocytes (%) [2, 14]: 0.81 ± 0.48 % | Reticulocytes (%) [2, 14]: 1.33 ± 0.34%

Nc1nc2c(ncn2COCCO)c(=O)[nH]1 [ACV, acyclovir]
Reduction of the HSV-1 replication at t 8 h (HSV-1 [3]; contact 2 min, ACV 10^3 μg/L): −12% | HSV (%), replication of HSV-1 by qPCR (HSV-1 [3]; [15]): 76 (1) % | Reduction of the HSV-1 replication at t 8 h (HSV-1 [4]; contact 2 min, ACV 10^3 μg/L): −1% | HSV (%), replication of HSV-1 by qPCR (HSV-1 [4]; [15]): 61 (1) % | Reduction of the HSV-1 replication at t 8 h (HSV-1 [5]; contact 2 min, ACV 10^3 μg/L): −6% | HSV (%), replication of HSV-1 by qPCR (HSV-1 [5]; [15]): 86 (1) % | Reduction of the HSV-1 replication at t 8 h (HSV-1 [6]; contact 2 min, [ACV]: 1 g/L): −52^# % | HSV (%), replication of HSV-1 by qPCR (HSV-1 [6]; control Line + (PBS + HSV), ACV 10^3 mg/L, 8 h post-contact of 2 mins): 54% | 18S (%), multiplication of the BHK-21 line by qPCR (BHK-21 line [7]; control Line + (PBS + HSV)): 118 (1) % | 18S (%), multiplication of the BHK-21 line by qPCR (BHK-21 line [7]; control Line + (PBS − HSV)): 108 (1) % | 18S (%), multiplication of the BHK-21 line by qPCR (BHK-21 line [8]; control Line + (PBS + HSV)): 62 (1) % | 18S (%), multiplication of the BHK-21 line by qPCR (BHK-21 line [8]; control Line + (PBS − HSV)): 57 (1) % | 18S (%), multiplication of the BHK-21 line by qPCR (BHK-21 line [9]; control Line + (PBS + HSV)): 92 (1) % | 18S (%), multiplication of the BHK-21 line by qPCR (BHK-21 line [9]; control Line + (PBS − HSV)): 111 (1) % | 18S (%), multiplication of the BHK-21 line by qPCR (BHK-21 line [10]; control Line + (PBS + HSV)): 111% | 18S (%), multiplication of the BHK-21 line by qPCR (BHK-21 line [10]; control Line + (PBS − HSV)): 97%

[Na+].[OH-] [NaOH 0.1M, NaOH]
IS of the positive substances of reference [1]: 15±3

Source: patent US12533377B2 (OXYMO TECHNOLOGIES INC., priority 2016, dated 2026)
